We go through 13 compounds from US20040171603A1, “Novel therapeutic targets for the treatment of mycobacterial infections and compounds useful therefor” (priority 2001, published 2004).

In assay [1] the test system is M. smegmatis expressing wildtype PknG in murine macrophage cell line RAW. The class given is cell-based, Mycobacterium smegmatis. Conditions: FIG. 2.
Assay [2] concerns the target T1, mycobacterial protein kinase G (PknG) (Mycobacterium tuberculosis, UniProt P9WI73).
T1 construct: GST; made in house; host or cells: E. coli BL21
As to the kind of experiment: biochemical.

[3] abbreviates: read-out: IC50 value, inhibition of serine/threonine protein kinase G of M. tuberculosis.
Where [4] appears, read: ATP near Km, read-out: Inhibition of PknG (IC50, [μM]).
The mark [5] stands for this setting: ranging from about 2 μM and more than 30 μM over the listed compounds, read-out: IC50 values, inhibition of PknG (span stated for the group).

Read-outs that look alike come from different tables or passages of the source.

T1 sequence (P9WI73 whole entry): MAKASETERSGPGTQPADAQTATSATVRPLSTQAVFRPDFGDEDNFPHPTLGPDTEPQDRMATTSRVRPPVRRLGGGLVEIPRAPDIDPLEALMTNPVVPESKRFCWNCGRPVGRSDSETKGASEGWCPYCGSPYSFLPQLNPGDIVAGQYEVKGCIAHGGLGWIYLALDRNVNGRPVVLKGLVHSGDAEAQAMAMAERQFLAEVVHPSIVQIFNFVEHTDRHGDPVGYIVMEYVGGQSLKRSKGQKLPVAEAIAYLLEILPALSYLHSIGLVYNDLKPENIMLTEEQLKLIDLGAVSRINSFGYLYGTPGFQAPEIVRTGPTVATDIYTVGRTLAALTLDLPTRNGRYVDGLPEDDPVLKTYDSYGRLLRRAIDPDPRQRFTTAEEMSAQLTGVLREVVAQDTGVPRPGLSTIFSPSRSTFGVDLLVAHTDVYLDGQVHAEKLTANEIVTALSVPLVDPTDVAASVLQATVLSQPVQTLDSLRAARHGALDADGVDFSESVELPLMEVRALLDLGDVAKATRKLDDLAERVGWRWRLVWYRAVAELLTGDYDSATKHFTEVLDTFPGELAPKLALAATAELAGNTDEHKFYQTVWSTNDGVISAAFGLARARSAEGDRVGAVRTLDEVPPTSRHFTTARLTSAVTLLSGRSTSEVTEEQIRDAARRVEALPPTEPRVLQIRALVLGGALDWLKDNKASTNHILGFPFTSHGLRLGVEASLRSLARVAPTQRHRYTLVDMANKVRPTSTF

As for `NC(=O)c1c(NC(=O)C2CC2)sc2c1CCCC2` [Compound 237, 2-(Cyclopropanecarbonyl-amino)-4,5,6,7-tetrahydro-benzo[b]thiophene-3-carboxylic acid amide], in assay [1] (1 μM or 10 μM), the “resistance to macrophage degradation of wildtype PknG-expressing M. smegmatis” value is “overcomes the resistance to macrophage degradation”. The “clearance of PknG-expressing M. smegmatis in macrophages” value in assay [1] (10 μM, 24 hours postinfection, RAW cells) is recorded as “as efficient as observed with the mutant or vector control transformants”. Further, in assay [2] (setting [3]), the IC50 turned out to be 0.2 µM.

For `NC(=O)c1c(NC(=O)Cc2ccc([N+](=O)[O-])cc2)sc2c1CCCC2` [Compound 238, 2-[2-(4-Nitrophenyl)-acetylamino]-4,5,6,7-tetrahydro-benzo[b]thiophene-3-carboxylic acid amide], the IC50 in assay [2] (setting [4]) was about 5 µM; in assay [2] (setting [5]), at least 2 µM.

Regarding `CC1CCc2c(sc(NC(=O)Cn3cnc([N+](=O)[O-])n3)c2C(N)=O)C1` (centres unmarked) [Compound 239, 6-Methyl-2-[2-(3-nitro-[1,2,4]triazol-1-yl)-acetylamino]-4,5,6,7-tetrahydro-benzo[b]thiophene-3-carboxylic acid amide], the IC50 in assay [2] (setting [4]) is over 30 µM; in assay [2] (setting [5]), at least 2 µM.

As for `O=C(Nc1sc2c(c1C(=O)NCCO)CCCC2)c1ccco1` [Compound 240, Furan-2-carboxylic acid [3-(2-hydroxy-ethylcarbamoyl)-4,5,6,7-tetrahydro-benzo[b]thiophen-2-yl]-amide], the results for the IC50 in assay [2] (setting [4]) and in assay [2] (setting [5]) were 16 µM and at least 2 µM, respectively.

On to `CC(=O)Nc1sc2c(c1C(N)=O)CCCC2` [Compound 250, 2-Acetylamino-4,5,6,7-tetrahydrobenzo[b]thiophene-3-carboxylic acid amide], for which the IC50 in assay [2] (setting [4]) is over 30 µM; in assay [2] (setting [5]), at least 2 µM.

Regarding `O=C(O)c1c(NC(=O)C2CC2)sc2c1CCCC2` [Compound 252, 2-(Cyclopropanecarbonyl-amino)-4,5,6,7-tetrahydro-benzo[b]thiophene-3-carboxylic acid], the IC50 is about 19 µM in assay [2] (setting [4]) and at least 2 µM in assay [2] (setting [5]).

`CC(C)C(=O)Nc1sc2c(c1C(N)=O)CCCC2` [Compound 255, 2-Isobutyrylamino-4,5,6,7-tetrahydrobenzo[b]thiophene-3-carboxylic acid amide]: the IC50 in assay [2] (setting [4]) was about 3 µM; in assay [2] (setting [5]), at least 2 µM.

With `CCOC(=O)c1c(NC(=O)C(C)C)sc2c1CCCC2` [Compound 256, 2-Isobutyrylamino-4,5,6,7-tetrahydrobenzo[b]thiophene-3-carboxylic acid ethyl ester], the IC50 in assay [2] (setting [4]) was over 30 µM; in assay [2] (setting [5]) it was at least 2 µM.

Turning to `NC(=O)c1c(NC(=O)C2CCC2)sc2c1CCCC2` [Compound 266, 2-(Cyclobutanecarbonyl-amino)-4,5,6,7-tetrahydrobenzo[b]thiophene-3-carboxylic acid amide], the IC50 in assay [2] (setting [4]) was about 3 µM; in assay [2] (setting [5]), at least 2 µM.

As for `CCC(C)C(=O)Nc1sc2c(c1C(N)=O)CCCC2` (centres unmarked) [Compound 267, 2-(2-Methyl-butyrylamino)-4,5,6,7-tetrahydrobenzo[b]thiophene-3-carboxylic acid amide], the IC50 in assay [2] (setting [4]) was about 15 µM; in assay [2] (setting [5]) it was at least 2 µM.

On to `CC1CCc2c(sc(NC(=O)C3CC3)c2C(N)=O)C1` (centres unmarked) [Compound 270, 2-(Cyclopropanecarbonyl-amino)-6-methyl-4,5,6,7-tetrahydrobenzo[b]thiophene-3-carboxylic acid amide], for which, in assay [2] (setting [3]), the IC50 was found to be 0.9 µM.

For the compound `CC(=O)Nc1sc2c(c1C(N)=O)CCC(C)C2` (centres unmarked) [Compound 284, 2-Acetylamino-6-methyl-4,5,6,7-tetrahydrobenzo[b]thiophene-3-carboxylic acid amide], the IC50 was about 12 µM in assay [2] (setting [4]) and at least 2 µM in assay [2] (setting [5]).

With `NC(=O)c1c(NC(=O)C2CC2)sc2c1CCSC2` [Compound 286, 2-(Cyclopropanecarbonyl-amino)-4,7-dihydro-5H-thieno[2,3-c]-thiopyran-3-carboxylic acid amide], the IC50 in assay [2] (setting [4]) is about 2 µM; in assay [2] (setting [5]), at least 2 µM.
